According to ChEMBL document CHEMBL3046896, “Synthesis and antitumor screening of new series of pyrimido-[4,5-b]quinolines and [1,2,4]triazolo[2,3:3,4]pyrimido[6,5-b]quinolines” (Med Chem Res, 2013):
The source made the active and inactive calls. No cut-off for these calls is given here.

Target: not listed separately
Assay: Displacement of methyl green from DNA after 24 hr by spectrophotometric analysis
Conditions: not given

Row | Compound | IC50 [µM]
1 | BLEOMYCIN | 10
2 | CCCCn1c(=S)[nH]c2c(c1=N)C(c1ccc(Cl)cc1)C1=C(CCCC1)N2 (stereo not drawn) | 88
3 | CCCCn1c(=S)[nH]c2c(c1=N)C(c1ccccc1)C1=C(CCCC1)N2 (stereo not drawn) | 72
4 | N=c1c2c(ncn1/N=C/c1ccc(Cl)cc1)NC1=C(CCCC1)C2c1ccccc1 (stereo not drawn) | 88
5 | CCOC(=O)/N=c1/c2c(ncn1NC(=O)OCC)NC1=C(CCCC1)C2c1ccccc1 (stereo not drawn) | 40
6 | Nc1ncnc2c1C(c1ccc(Cl)cc1)C1=C(CCCC1)N2 (stereo not drawn) | 25
7 | COc1ccc(C2C3=C(CCCC3)Nc3nc(C)[nH]c(=O)c32)cc1OC (stereo not drawn) | 25
8 | N=c1c2c(ncn1/N=C/c1ccc(Cl)cc1)NC1=C(CCCC1)C2c1ccc(Cl)cc1 (stereo not drawn) | 70
9 | COc1ccc(C2C3=C(CCCC3)Nc3ncn(/N=C/c4ccc(Cl)cc4)c(=N)c32)cc1OC (stereo not drawn) | 14
10 | Cc1nc2c(c(=O)[nH]1)C(c1ccccc1)C1=C(CCCC1)N2 (stereo not drawn) | 22
11 | S=c1[nH]c2c(c(=S)[nH]1)C(c1cccc(Br)c1)C1=C(CCCC1)N2 (stereo not drawn) | 76
12 | N=c1c2c([nH]c(=S)n1-c1ccccc1)NC1=C(CCCC1)C2c1ccccc1 (stereo not drawn) | 25
13 | Cc1nc2c(c(=O)[nH]1)C(c1cccc(Br)c1)C1=C(CCCC1)N2 (stereo not drawn) | 32
14 | COc1ccc(/C=N/n2cnc3c(c2=N)C(c2ccc(OC)c(OC)c2)C2=C(CCCC2)N3)cc1OC (stereo not drawn) | 38
15 | COc1ccc(C2C3=C(CCCC3)Nc3ncnc(N)c32)cc1OC (stereo not drawn) | 12
16 | S=c1[nH]c2c(c(=S)[nH]1)C(c1ccccc1)C1=C(CCCC1)N2 (stereo not drawn) | 72
17 | COc1ccc(/C=N/n2cnc3c(c2=N)C(c2ccccc2)C2=C(CCCC2)N3)cc1OC (stereo not drawn) | 32
18 | N=c1c2c([nH]c(=S)n1-c1ccccc1)NC1=C(CCCC1)C2c1ccc(Cl)cc1 (stereo not drawn) | 55
19 | Brc1cccc(C2C3=C(CCCC3)Nc3ncn4ncnc4c32)c1 (stereo not drawn) | 90
20 | COc1ccc(C2C3=C(CCCC3)Nc3[nH]c(=S)n(-c4ccccc4)c(=N)c32)cc1OC (stereo not drawn) | 40
21 | COc1ccc(C2C3=C(CCCC3)Nc3[nH]c(=S)[nH]c(=S)c32)cc1OC (stereo not drawn) | 38
22 | c1ccc(C2C3=C(CCCC3)Nc3ncn4ncnc4c32)cc1 (stereo not drawn) | 88
23 | O=c1[nH]cnc2c1C(c1ccccc1)C1=C(CCCC1)N2 (stereo not drawn) | 88

System: not listed separately
Assay: Binding affinity to DNA at 5 mg/ml by TLC analysis
Conditions: not given

Row | Compound | Activity
24 | CCCCn1c(=S)[nH]c2c(c1=N)C(c1ccc(Cl)cc1)C1=C(CCCC1)N2 (stereo not drawn) | inactive
25 | CCCCn1c(=S)[nH]c2c(c1=N)C(c1ccccc1)C1=C(CCCC1)N2 (stereo not drawn) | Active
26 | N=c1c2c(ncn1/N=C/c1ccc(Cl)cc1)NC1=C(CCCC1)C2c1ccccc1 (stereo not drawn) | inactive
27 | CCOC(=O)/N=c1/c2c(ncn1NC(=O)OCC)NC1=C(CCCC1)C2c1ccccc1 (stereo not drawn) | Active
28 | Nc1ncnc2c1C(c1ccc(Cl)cc1)C1=C(CCCC1)N2 (stereo not drawn) | Active
29 | COc1ccc(C2C3=C(CCCC3)Nc3nc(C)[nH]c(=O)c32)cc1OC (stereo not drawn) | Active
30 | N=c1c2c(ncn1/N=C/c1ccc(Cl)cc1)NC1=C(CCCC1)C2c1ccc(Cl)cc1 (stereo not drawn) | Active
31 | COc1ccc(C2C3=C(CCCC3)Nc3ncn(/N=C/c4ccc(Cl)cc4)c(=N)c32)cc1OC (stereo not drawn) | Active
32 | Cc1nc2c(c(=O)[nH]1)C(c1ccccc1)C1=C(CCCC1)N2 (stereo not drawn) | Active
33 | S=c1[nH]c2c(c(=S)[nH]1)C(c1cccc(Br)c1)C1=C(CCCC1)N2 (stereo not drawn) | Active
34 | N=c1c2c([nH]c(=S)n1-c1ccccc1)NC1=C(CCCC1)C2c1ccccc1 (stereo not drawn) | Active
35 | Cc1nc2c(c(=O)[nH]1)C(c1cccc(Br)c1)C1=C(CCCC1)N2 (stereo not drawn) | Active
36 | COc1ccc(/C=N/n2cnc3c(c2=N)C(c2ccc(OC)c(OC)c2)C2=C(CCCC2)N3)cc1OC (stereo not drawn) | Active
37 | COc1ccc(C2C3=C(CCCC3)Nc3ncnc(N)c32)cc1OC (stereo not drawn) | Active
38 | S=c1[nH]c2c(c(=S)[nH]1)C(c1ccccc1)C1=C(CCCC1)N2 (stereo not drawn) | Active
39 | COc1ccc(/C=N/n2cnc3c(c2=N)C(c2ccccc2)C2=C(CCCC2)N3)cc1OC (stereo not drawn) | Active
40 | N=c1c2c([nH]c(=S)n1-c1ccccc1)NC1=C(CCCC1)C2c1ccc(Cl)cc1 (stereo not drawn) | Active
41 | Brc1cccc(C2C3=C(CCCC3)Nc3ncn4ncnc4c32)c1 (stereo not drawn) | inactive
42 | COc1ccc(C2C3=C(CCCC3)Nc3[nH]c(=S)n(-c4ccccc4)c(=N)c32)cc1OC (stereo not drawn) | Active
43 | COc1ccc(C2C3=C(CCCC3)Nc3[nH]c(=S)[nH]c(=S)c32)cc1OC (stereo not drawn) | Active
44 | c1ccc(C2C3=C(CCCC3)Nc3ncn4ncnc4c32)cc1 (stereo not drawn) | inactive
45 | O=c1[nH]cnc2c1C(c1ccccc1)C1=C(CCCC1)N2 (stereo not drawn) | inactive

System: MCF7
Assay: Cytotoxicity against Homo sapiens (human) MCF7 cells after 48 hr by SRB assay
Type: functional, cell-based
Conditions: MCF7, 48 h

Row | Compound | IC50 [µM]
46 | CCCCn1c(=S)[nH]c2c(c1=N)C(c1ccccc1)C1=C(CCCC1)N2 (stereo not drawn) | 5.7
47 | CCOC(=O)/N=c1/c2c(ncn1NC(=O)OCC)NC1=C(CCCC1)C2c1ccccc1 (stereo not drawn) | 5.44
48 | Nc1ncnc2c1C(c1ccc(Cl)cc1)C1=C(CCCC1)N2 (stereo not drawn) | 3.89
49 | COc1ccc(C2C3=C(CCCC3)Nc3nc(C)[nH]c(=O)c32)cc1OC (stereo not drawn) | > 10
50 | N=c1c2c(ncn1/N=C/c1ccc(Cl)cc1)NC1=C(CCCC1)C2c1ccc(Cl)cc1 (stereo not drawn) | > 10
51 | COc1ccc(C2C3=C(CCCC3)Nc3ncn(/N=C/c4ccc(Cl)cc4)c(=N)c32)cc1OC (stereo not drawn) | 3.76
52 | Cc1nc2c(c(=O)[nH]1)C(c1ccccc1)C1=C(CCCC1)N2 (stereo not drawn) | 4.97
53 | S=c1[nH]c2c(c(=S)[nH]1)C(c1cccc(Br)c1)C1=C(CCCC1)N2 (stereo not drawn) | 4.5
54 | N=c1c2c([nH]c(=S)n1-c1ccccc1)NC1=C(CCCC1)C2c1ccccc1 (stereo not drawn) | 6.98
55 | Cc1nc2c(c(=O)[nH]1)C(c1cccc(Br)c1)C1=C(CCCC1)N2 (stereo not drawn) | 4.03
56 | COc1ccc(/C=N/n2cnc3c(c2=N)C(c2ccc(OC)c(OC)c2)C2=C(CCCC2)N3)cc1OC (stereo not drawn) | 6.17
57 | COc1ccc(C2C3=C(CCCC3)Nc3ncnc(N)c32)cc1OC (stereo not drawn) | 3.62
58 | COc1ccc(/C=N/n2cnc3c(c2=N)C(c2ccccc2)C2=C(CCCC2)N3)cc1OC (stereo not drawn) | 5.37
59 | Brc1cccc(C2C3=C(CCCC3)Nc3ncn4ncnc4c32)c1 (stereo not drawn) | > 10
60 | COc1ccc(C2C3=C(CCCC3)Nc3[nH]c(=S)n(-c4ccccc4)c(=N)c32)cc1OC (stereo not drawn) | 5.3
61 | COc1ccc(C2C3=C(CCCC3)Nc3[nH]c(=S)[nH]c(=S)c32)cc1OC (stereo not drawn) | > 10
62 | c1ccc(C2C3=C(CCCC3)Nc3ncn4ncnc4c32)cc1 (stereo not drawn) | > 10
63 | O=c1[nH]cnc2c1C(c1ccccc1)C1=C(CCCC1)N2 (stereo not drawn) | > 10
